Reference: patent US8507756B2, “Plant protection” (Plant Bioscience Limited, priority 2007, dated 2013)

What was measured:
[1] = system: Tetranychus urticae (two-spotted spider mite); experiment: Spider mite challenge of untreated tomato plants grown adjacent to plants from JA-treated seeds; type: in vivo; details: tomato cv Carousel; neighbours of 1.5 or 3.0 mM JA seed treatment
Experimental: The effect of Tetranychus urticae on plants was measured by means of counting the number of live and dead mites on each plant and the number of mite eggs present using a dissecting microscope. Seeds of a UK commercial F1 hybrid tomato variety (cv. Carousel) were treated with either 1.5 or 3.0 mM jasmonic acid (JA) and 42.8 mM ethanol in deionised H2O for a period of 24 hours at 4° C. in the dark. Those seeds were then removed from solution and washed in deionised H2O only to remove the JA coating the outside of the seed. Those seed were then germinated in a commercial manner using rockwool blocks and were grown on under glasshouse conditions appropriate to this crop. Plants were challenged with two-spotted spider mite (Tetranychus urticae) 7 weeks after treatment a common crop pest, acting here as a “model herbivore”. […] The effect was observed on comparing the controls located at least 10 meters away. (FIG. 6). The illustrated data are means of 10 replicates+/−standard error of the mean. […] The effect was again observed on comparing the controls located at least 10 meters away. (FIG. 7). The illustrated data are means of 10 replicates+/−standard error of the mean.

Myzus persicae = experiment: JA seed treatment, sweet pepper plants challenged with aphids; type: in vivo; details: sweet pepper cv Biscayne, seed treatment 1.5 mM JA
Experimental: Tomato, pepper, maize and wheat seeds were treated with 3 mM JA or 1.5 mM JA solutions or with 3 mM methyl jasmonate (MeJA) or with deionised water containing 42.8 mM ethanol (control) by full submersion of up to 40 seeds in a Petri dish of solution wrapped in foil for a period of 24 hours at 4° C. in a fridge. A temperature of 4° C. was used both to prevent degradation of the jasmonic acid solutions and to prevent germination of the seeds. Pepper seeds were sown in peat-based compost and grown in unheated glass houses under ambient conditions in the summer. Tomato plants were then challenged with Tetranychus urticae (two-spotted spider mite) which were allowed to feed for 9 days, Manduca sexta (tobacco hornworm) caterpillars which were allowed to feed for 4 days or Myzus persicae (aphid), which were allowed to feed for 10 or 12 days. In each case these organisms were restricted to the plant on which they had originally been placed. Pepper plants were challenged with Myzus persicae (aphid), which were allowed to feed for 2 weeks. […] The effect of Myzus persicae on plants was determined by counting the aphid population on each plant under a dissecting microscope at ×10 magnification. […] Aphids were allowed to feed on the plants for two weeks and the growth of the aphid population over this period was then measured. […]

cucumber = experiment: Long term growth and yield study after JA seed treatment, cucumber; type: in vivo; details: seed treatment 1.5 or 3.0 mM JA, weekly harvests
Source text: (§1) Data are means of 8 replicate plants+/−standard error of the mean, and the line is a fitted growth response.

Spodoptera exempta = experiment: JA seed treatment, wheat plants challenged with Spodoptera exempta caterpillars; type: in vivo; details: wheat cv. Einstein; seed treatment 1.5 mM JA; challenged 7 weeks after seed treatment; 3 days feeding; p<0.01
Experimental: Tomato, pepper, maize and wheat seeds were treated with 3 mM JA or 1.5 mM JA solutions or with 3 mM methyl jasmonate (MeJA) or with deionised water containing 42.8 mM ethanol (control) by full submersion of up to 40 seeds in a Petri dish of solution wrapped in foil for a period of 24 hours at 4° C. in a fridge. A temperature of 4° C. was used both to prevent degradation of the jasmonic acid solutions and to prevent germination of the seeds.
Wheat and maize seeds were sown in peat-based compost and grown in unheated glass houses with supplementary lighting. (600 W SON-T lamps, for 16 hours per day) in the autumn.
Tomato plants were then challenged with Tetranychus urticae (two-spotted spider mite) which were allowed to feed for 9 days, Manduca sexta (tobacco hornworm) caterpillars which were allowed to feed for 4 days or Myzus persicae (aphid), which were allowed to feed for 10 or 12 days. […]
The effect of Manduca sexta or Spodoptera exempta on plants was determined by measurement of the leaf area eaten, measured using a leaf area meter.
Seeds of the commercial wheat variety (cv. Einstein) were treated with 1.5 mM jasmonic acid (JA), and plants grown in the glasshouse (as described under Example 1). […] Caterpillars were allowed to feed on the plants for 3 days and the area of grazed leaves was then measured. […]

[2] = Dissolution of JA in water when preparing the solution; type: physicochemical; details: 250 mg JA; ethanol needed first
Experimental: 6. 1 ml of ethanol was added to the vial of JA using a 1000 μl Gilson pipette, the lid of the vial replaced and the vial shaken to dissolve the JA.

tomato (cv. Carousel) = experiment: Long term growth and yield study after JA seed treatment, tomato; type: in vivo, Solanum lycopersicum
Source text: as §1

[3] = tomato cv. Carousel, JA seed treatment vs control, 8 replicate plants

With `CC/C=C\C[C@H]1C(=O)CC[C@@H]1CC(=O)O` [JA, jasmonic acid] the “Population of T. urticae on untreated plants grown adjacent to plants from JA-treated seeds, vs controls at least 10 meters away” value [1] was “significant reduction”, the “Reproductive rate of the mite (egg production) on untreated plants grown adjacent to plants from JA-treated seeds, vs controls at least 10 meters away” value [1] was “significant reduction” and the “Rate of aphid population growth compared with controls” value (Myzus persicae; challenged 8 weeks after seed treatment, 2 weeks feeding) was “significant (p<0.001) reduction”. The “Aphid population growth rate from fitted growth curves” value (Myzus persicae; control 0.19+/-0.011) was 0.11+/−0.016, the “Vegetative or reproductive growth, or commercial yield” value (cucumber) was “no significant effect” and the “Leaf area consumed by caterpillars, lower than controls” value (Spodoptera exempta) was 60%. For the same compound, the Solubility in water [2] was “will not dissolve in water directly”, the “Fruit dry weight at each weekly harvest” value (tomato (cv. Carousel); [3]) was “no significant effects” and the “Number of fruit at each weekly harvest” value (tomato (cv. Carousel); [3]) was “no significant effects”. For the same compound, the “Plant height at each weekly harvest” value (tomato (cv. Carousel); [3]) was “no significant effects” and the “Vegetative or reproductive growth, or commercial yield” value (tomato (cv. Carousel); tomato, seed treatment 1.5 or 3.0 mM JA, weekly harvests) was “no significant effect”.
